US20100063085A1, “METHOD OF TREATING LEARNING IMPAIRMENT IN DOWN'S SYNDROME SUBJECTS” (University Court of The University of Dundee, priority 2008, published 2010)
Where two headings read alike, the source gives them in different places.

Experiments:
Type in all cases: biochemical
PKA = PKA (Homo sapiens, UniProt P17612); assay: PKA 33P kinase assay; conditions: read-out: PKA activity as percentage of control without inhibitor; for remaining activity at 1 µM: inhibitor 1 μM; for remaining activity at 10 µM: inhibitor 10 μM
Method: (§1) All assays (25.5 μl) were carried out at room temperature (21° C.) and were linear with respect to time and enzyme concentrations under the conditions used. Assays were performed for 30 minutes except assays for LCK and PKB which were performed for 15 minutes using Multidrop Micro reagent dispensers (Thermo Electron Corporation, Waltham, Mass. 02454, USA) in a 96-well format. The concentration of […] [γ-^33P] ATP (800 cpm/pmol) in the assays was one of three concentrations (5, 20 or 50 μM) in order to be at or below Km for ATP for the enzyme. Assays were initiated with MgATP and stopped by addition of 5 μl of 0.5M orthophosphoric acid. Assays were then harvested onto P81 filterplates using a unifilter harvester (PerkinElmer, Boston, Mass. 02118, USA), with a wash buffer of 50 mM orthophosphoric acid. Filterplates were then air dried overnight. 10 μl of Microscint O was added per well prior to counting for radioactivity.
(§2) MKK1, JNK/SAPK1c, SAPK2a/p38, SAPK2b/p38β2, SAPK3/p38γ, SAPK4/p38δ, MAPK2/ERK2, MAPKAP-K1β, MAPKAP-K2, MSK1, PRAK, PKA, PKCα, PDK1, SGK, p70S6K, GSK3β, ROCK-II, PRK2, AMPK, CHK1, CHK2, CK2, PHK, LCK, were assayed according to Davies et al., (Davies, S. P., Reddy, H., Caivano, M. and Cohen, P. Biochem. J. 351, 95-105, 2000.
(§3) CSK and CDK2/cyclinA, were assayed according to Bain et al. (Bain J, McLauchlan H, Elliott M, Cohen P. Biochem J. 371, 199-204, 2003., except that ATP concentrations were either 5, 20 or 50 micromolar so that they were at or below the Km for ATP. The ATP concentrations used were as follows, 5 μM for assays of MKK1, SAPK3, SAPK4, GSK3β, PRK2 CK2 20 μm for assays of JNK, SAPK2β, MAPKAP-K2, MSK1, PRAK, PKA, […], PDK1, SGK, p70S6K, ROCK-II, CHK1, CHK2, CSK, CDK2, and 50 μM for assays of SAPK2a, MAPK2/ERK2, AMPK, LCK, PHK and MAPKAP-K1β.

CDK2/cyclin A = CDK2/cyclin A (Homo sapiens, UniProt P24941); assay: CDK2/cyclin A 33P kinase assay; conditions: read-out: CDK2/cyclin A activity as percentage of control without inhibitor
Method: as §1, §3

CSK = CSK (Homo sapiens, UniProt P41240); assay: CSK 33P kinase assay; conditions: read-out: CSK activity as percentage of control without inhibitor
Sequence of CSK (P41240 whole entry, species assumed): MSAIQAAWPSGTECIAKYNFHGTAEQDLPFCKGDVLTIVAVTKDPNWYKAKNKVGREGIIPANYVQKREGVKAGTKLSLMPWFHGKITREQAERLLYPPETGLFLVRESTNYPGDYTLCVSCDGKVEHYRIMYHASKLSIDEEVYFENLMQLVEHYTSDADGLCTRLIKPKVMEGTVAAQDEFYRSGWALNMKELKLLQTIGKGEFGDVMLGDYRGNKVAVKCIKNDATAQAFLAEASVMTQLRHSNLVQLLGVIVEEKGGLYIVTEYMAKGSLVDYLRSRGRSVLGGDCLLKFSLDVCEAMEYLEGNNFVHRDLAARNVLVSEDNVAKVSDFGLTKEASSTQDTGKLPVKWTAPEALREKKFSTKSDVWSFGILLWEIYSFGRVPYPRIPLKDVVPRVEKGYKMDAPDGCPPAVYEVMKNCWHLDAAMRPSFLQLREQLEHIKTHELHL
Method: as §1, §3

SAPK4/p38d = biological target: T1, SAPK4/p38d (Homo sapiens, UniProt O15264); assay: SAPK4/p38d 33P kinase assay; conditions: read-out: SAPK4/p38d activity as percentage of control without inhibitor
T1 sequence (O15264 1-365): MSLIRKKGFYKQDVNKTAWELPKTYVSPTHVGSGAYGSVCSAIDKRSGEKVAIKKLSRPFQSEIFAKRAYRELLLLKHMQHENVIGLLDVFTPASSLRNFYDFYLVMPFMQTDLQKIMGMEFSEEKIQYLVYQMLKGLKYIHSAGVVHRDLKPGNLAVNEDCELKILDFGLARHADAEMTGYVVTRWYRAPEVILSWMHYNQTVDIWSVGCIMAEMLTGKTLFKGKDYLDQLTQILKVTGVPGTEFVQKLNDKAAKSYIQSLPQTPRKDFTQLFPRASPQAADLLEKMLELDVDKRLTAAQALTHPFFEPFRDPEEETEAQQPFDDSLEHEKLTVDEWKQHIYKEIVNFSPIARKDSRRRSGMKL
Method: as §1, §2, §3

Row | SMILES | remaining activity at 1 µM (PKA) [%] | remaining activity at 10 µM (PKA) [%] | remaining activity at 1 µM (CDK2/cyclin A) [%] | remaining activity at 10 µM (CDK2/cyclin A) [%] | remaining activity at 1 µM (CSK) [%] | remaining activity at 10 µM (CSK) [%] | remaining activity at 1 µM (SAPK4/p38d) [%] | remaining activity at 10 µM (SAPK4/p38d) [%] | remaining activity at 1 µM (SAPK4/p38d; inhibitor 1 μM) [%] | remaining activity at 10 µM (SAPK4/p38d; inhibitor 10 μM) [%] | remaining activity at 1 µM (CDK2/cyclin A; inhibitor 1 μM) [%] | remaining activity at 10 µM (CDK2/cyclin A; inhibitor 10 μM) [%] | remaining activity at 1 µM (CSK; inhibitor 1 μM) [%] | remaining activity at 10 µM (CSK; inhibitor 10 μM) [%]
1 | COc1ccc2c(c1)[nH]c1c(C)nccc12 [Harmine] | 82 | 92 | 98 | 62 | 92 | 101 | 96 | 82 |  |  |  |  |  | 
2 | COc1ccc2c3c([nH]c2c1)C(C)=NCC3 [Harmaline] | 70 | 86 | 99 | 98 | 64 | 90 |  |  | 76 | 113 |  |  |  | 
3 | CC1=NCCc2c1[nH]c1cc(O)ccc21 [Harmalol] | 90 | 75 |  |  |  |  |  |  | 101 | 93 | 97 | 77 | 110 | 92
